Consider one substance from patent US20250295799A1, “ANTIBODY-DRUG CONJUGATES TARGETING GLYPICAN-3 AND METHODS OF USE” (Zymeworks BC Inc., priority 2022, published 2025).

For assay [1], the target named is T1, human GPC3 on transfected CHO-S cells (Homo sapiens, UniProt P51654).
T1 construct: expressed in transfected cells; host or cells: CHO-S cells, transient transfection (Neon system)
Briefly: Binding to transfected CHO-S cells by flow cytometry. The following applies: 24 h at 4 °C. Here is the method:
(§1) Following transfection, cells were seeded at 50,000 cells/well in V-bottom 96-well plates and treated with antibody for 24 hours at 4° C. to prevent internalization. […] Following incubation and washing, fluorescence was detected by flow cytometry on a BD LSRFortessa™ Cell Analyzer (BD Biosciences, Franklin Lake, NJ) with 1,000 minimum events collected per well.
as §1
On the technique in general: Flow cytometry measures light scatter and fluorescence of single cells or particles in a stream.

For assay [2], the system named is GFP-transfected CHO cells. As to the kind of experiment: Binding to transfected CHO-S cells by flow cytometry (negative transfection control). Here is the method: Briefly, CHO—S cells were transiently transfected for −24 hours with a pTT5-based expression plasmid encoding human GPC3 or cynomolgus monkey GPC3, 0.5 μg DNA per 1 million cells, using the Neon™ Transfection System (Thermo Fisher Scientific Corp., Waltham, MA), to transiently express human or cynomolgus monkey GPC3. Cells transfected with GFP were used as negative transfection controls. Following transfection, cells were seeded at 50,000 cells/well in V-bottom 96-well plates and treated with antibody for 24 hours at 4° C. to prevent internalization. […] Following incubation and washing, fluorescence was detected by flow cytometry on a BD LSRFortessa™ Cell Analyzer (BD Biosciences, Franklin Lake, NJ) with 1,000 minimum events collected per well. AF647/APC-A GeoMean (fluorescence signal geometric mean, proportional to anti-Human AF647 binding) in live cell population was plotted against antibody concentration using GraphPad Prism Version 9 (GraphPad Software, San Diego, CA). The Bmax and Kd values were derived from the “Specific binding with Hill slope” nonlinear regression curve fit in GraphPad Prism Version 9.

Assay [3] relates to JHH-5 cells (mid GPC3-expressing). As to the kind of experiment: Internalization by flow cytometry (quenched AF488). It counts as cell-based. The note with it: 5 nM, 24 h. Here is the method:
Cells were seeded at 50,000 cells/well in 48-well plates and incubated overnight under standard culturing conditions (37° C./5% CO2) Gibco™ William's E Medium, GlutaMAX™ Supplement (Thermo Fisher Scientific, Waltham, MA; Cat. No. 32551020) with 10% FBS (Thermo Fisher Scientific, Waltham, MA; Cat. No. 12483020). Coupled antibodies were added to cells the following day at 5 nM and incubated under standard culturing conditions for 24 hours to allow for internalization. Following incubation, cells were dissociated, washed, and surface AF488 fluorescence was quenched using an anti-AF488 antibody (Life Technologies, Carlsbad, CA; Cat. No. A-11094) at 100 nM for 30 minutes at 4° C. Quenched AF488 fluorescence (internalized fluorescence) was detected by flow cytometry on a BD LSRFortessa™ Cell Analyzer (BD Biosciences, Franklin Lake, NJ) with 1,000 minimum events collected per well.
Briefly, plasma stress was carried out by incubating M3-H18L6 LC-modified antibodies in mouse plasma (BioIVT, Westbury, NY; Cat. No. MSE00PL38NC-0103070) for 14 days in a 37° C./5% CO2 incubator. […] Following incubation and washing, fluorescence was detected by flow cytometry on a BD LSRFortessa™ Cell Analyzer (BD Biosciences, Franklin Lake, NJ) with 1,000 minimum events collected per well. […]

palivizumab: the “binding to CHO-S cells expressing human GPC3, in words” value in assay [1] is recorded as “did not exhibit any binding”. The “binding to GFP-transfected CHO cells, in words” value in assay [2] was “did not exhibit any binding”. For the same substance, the “internalization, in words” value in assay [3] was “minimal internalization”.
